From publication PMC4085797, “Synthetic Inositol Phosphate Analogs Reveal that PPIP5K2 Has a Surface-Mounted Substrate Capture Site that Is a Target for Drug Discovery” (Chemistry & Biology, 2014) come the findings set out here.

Format in all cases: biochemical
One assay deals with T1, human PPIP5K2^KD (Homo sapiens, UniProt O43314).
T1 construct: The kinase domain of human PPIP5K2 (PPIP5K2^KD; residues 1–366); made in house
T1 sequence (O43314 1-366): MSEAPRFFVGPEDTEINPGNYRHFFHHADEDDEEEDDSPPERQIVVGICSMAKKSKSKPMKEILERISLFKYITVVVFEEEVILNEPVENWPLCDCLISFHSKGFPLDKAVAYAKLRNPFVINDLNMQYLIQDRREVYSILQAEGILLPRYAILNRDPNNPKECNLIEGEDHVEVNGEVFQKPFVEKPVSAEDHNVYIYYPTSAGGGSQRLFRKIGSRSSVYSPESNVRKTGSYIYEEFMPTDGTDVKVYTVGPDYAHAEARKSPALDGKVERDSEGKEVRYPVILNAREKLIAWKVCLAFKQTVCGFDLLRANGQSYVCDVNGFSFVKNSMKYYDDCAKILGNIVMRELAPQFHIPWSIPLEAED
As to the kind of experiment: HPLC assay of [3H]InsP6 phosphorylation (InsP6 kinase activity). As for the experimental part:
(§1) The initial InsP6 concentration was either 500 nM, 70 nM, or 40 nM. Various concentrations of 2,5-di-O-Bn-InsP4 were present as indicated. Radioactivity was assessed using an in-line Flo1 detector. The ADP-driven dephosphorylation of 100 nM 1,5-[PP]2-InsP4 by PPIP5K2^KD was usually determined by a luminescence-based assay of ATP accumulation ([Riley et al., 2012; Weaver et al., 2013]). The IC50 values were determined using GraphPad Prism v6.02 (n ≥ 3). In some experiments, 1,5-[PP]2-[^3H]InsP4 dephosphorylation by PPIP5K2^KD was assayed in 50 μl buffer containing 50 mM KCl, 20 mM HEPES pH 7.0, 7 mM MgSO4, 5 mM ADP, 1 mM EDTA. Reactions were then quenched, neutralized, and analyzed with HPLC using a Partisphere SAX column ([Weaver et al., 2013]); 1 ml fractions were collected for liquid scintillation spectrometry. The ATPase activity of PPIP5K2^KD (10–270 μg/ml) was assayed from Pi release following incubation at 37°C for 120–180 min in 20 μl reaction mixtures containing 20 mM Tris/HCl, pH 7.5, 10 mM ATP, 100 mM KCl, 0.1 mM EDTA, and 13 mM MgCl2.
S1, related to Figure 4. 2,5-Di-O-Bn-InsP4 (10) inhibits both ADP-driven [PP]2-[3H]InsP4 dephosphorylation and ATP-driven [3H]InsP6 phosphorylation by PPIP5K2 […]
E:Incubation buffers (see Methods) contained 500 nM [3H]InsP6 plus either 12.5 ng PPIP5K2 KD (panel D) or 30 ng PPIP5K2KD plus 1.5 μM 2,5-di-O-Bn-InsP4 (10) (panel E). Reactions rates in the absence and presence of 2,5-di-O-Bn-InsP4 (10) were calculated to be 52 and 21 nmol/mg protein/min, respectively. […]

For a further assay, the target named is T2, human IP6K2 (Homo sapiens, UniProt Q9UHH9).
T2 construct: Full-length human IP6K2, the kinase domain of human PPIP5K2; made in house
T2 sequence (Q9UHH9 1-426): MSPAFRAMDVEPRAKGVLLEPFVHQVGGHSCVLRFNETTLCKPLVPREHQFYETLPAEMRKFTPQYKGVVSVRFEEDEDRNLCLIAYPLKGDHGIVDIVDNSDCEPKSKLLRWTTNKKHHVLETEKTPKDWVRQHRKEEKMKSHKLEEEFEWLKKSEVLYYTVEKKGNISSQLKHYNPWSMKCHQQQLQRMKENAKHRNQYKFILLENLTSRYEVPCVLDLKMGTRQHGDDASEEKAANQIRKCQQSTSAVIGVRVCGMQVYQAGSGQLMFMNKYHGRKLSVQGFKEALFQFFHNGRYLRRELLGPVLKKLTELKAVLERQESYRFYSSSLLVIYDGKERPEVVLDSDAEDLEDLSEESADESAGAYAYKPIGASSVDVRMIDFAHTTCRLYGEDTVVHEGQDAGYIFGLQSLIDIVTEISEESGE
Put plainly: HPLC assay of [3H]InsP6 phosphorylation by IP6K2. The following applies: [InsP6] = 500 nM; data not shown; read-out: IC50, inhibition of IP6K2 activity. How it is done: as §1

Assay [1] addresses T3, PPIP5K2^KD (kinase domain of human PPIP5K2) (Homo sapiens, UniProt O43314).
T3 construct: The kinase domain of human PPIP5K2 (PPIP5K2^KD; residues 1–366); made in house
T3 sequence (O43314 1-366): T1 sequence (O43314 1-366)
Put plainly: HPLC analysis of 1,5-[PP]2-[3H]InsP4 dephosphorylation. The following applies: 2 μM analog, 200 nM 1,5-[PP]2-[3H]InsP4, 20 min; rate in absence 192. As for the experimental part: as §1
S1, related to Figure 4. 2,5-Di-O-Bn-InsP4 (10) inhibits both ADP-driven [PP]2-
[3H]InsP4 dephosphorylation and ATP-driven [3H]InsP6 phosphorylation by PPIP5K2 […]
Bn-InsP4 (10) (panel C). After 20 min reactions were quenched and analyzed by HPLC […]
O-Bn-InsP4 (10) were calculated to be 192 and 95 nmol/mg protein/min, respectively. […]

As a reminder, the Ki is a measure of affinity in units of concentration, obtained from inhibition or displacement. The IC50 is the concentration needed to halve the response being measured. On to `O=P(O)(O)O[C@@H]1[C@@H](OCc2ccccc2)[C@H](OP(=O)(O)O)[C@@H](OP(=O)(O)O)[C@@H](OCc2ccccc2)[C@H]1OP(=O)(O)O` [compound 10, 2,5-di-O-Bn-InsP4], for which, on human PPIP5K2^KD (1.5 μM analog, 500 nM [3H]InsP6, rate in absence 52), the “reaction rate of [3H]InsP6 phosphorylation in the presence of analog” value is reported as 21 nmol/mg protein/min. The “nature of inhibition of InsP6 kinase activity” value on human PPIP5K2^KD (Dixon plot, Figure 4C) was “competitive”. Also, the Ki on human PPIP5K2^KD (Figure 4C, read-out: Ki, inhibition of InsP6 kinase activity (Dixon plot)) was 240 nM. For the same compound, the IC50 is 1000 nM on human PPIP5K2^KD ([InsP6] = 500 nM, read-out: IC50, inhibition of InsP6 phosphorylation) and 63 µM at human IP6K2. For the same compound, in assay [1], the “reaction rate of [PP]2-[3H]InsP4 dephosphorylation in the presence of analog” value was 95 nmol/mg protein/min.
